Where a name gives a salt, the structure may show the parent alone.

In general, IC50 refers to the concentration needed to halve the response being measured.

The target in this experiment is T1, human CGT (ceramide galactosyltransferase), CHO/CGT lysate (Homo sapiens, UniProt Q16880).
T1 construct: Full-length human CGT cDNA was cloned into the BamH1/Xho1 site of pcDNA3.1 (+); expressed in transfected cells; host or cells: Chinese hamster ovary (CHO) cells; lysate prepared with M-PER
T1 sequence (Q16880 21-541): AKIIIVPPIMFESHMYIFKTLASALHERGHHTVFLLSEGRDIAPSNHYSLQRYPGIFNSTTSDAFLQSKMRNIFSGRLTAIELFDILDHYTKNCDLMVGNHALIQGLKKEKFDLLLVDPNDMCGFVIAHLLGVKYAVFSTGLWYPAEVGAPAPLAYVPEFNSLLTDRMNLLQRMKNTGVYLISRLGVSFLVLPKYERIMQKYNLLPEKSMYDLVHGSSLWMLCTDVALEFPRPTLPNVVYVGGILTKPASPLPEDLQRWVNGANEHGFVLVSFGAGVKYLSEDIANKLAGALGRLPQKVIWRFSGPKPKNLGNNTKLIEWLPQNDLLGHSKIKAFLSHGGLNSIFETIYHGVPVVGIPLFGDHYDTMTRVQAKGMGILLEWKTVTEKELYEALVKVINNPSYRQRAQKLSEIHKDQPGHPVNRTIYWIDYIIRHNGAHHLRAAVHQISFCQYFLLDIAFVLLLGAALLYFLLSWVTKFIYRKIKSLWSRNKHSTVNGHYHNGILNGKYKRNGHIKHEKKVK
The experiment can be described thus: CGT enzyme assay, RapidFire/MS/MS readout (Table 1 ranges with one asterisk *). In kind it is biochemical. The following applies: RapidFire method (range with one asterisk *). The procedure, abridged: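 IC50s come from variable-slope dose-response fits of internal-standard-normalized C6-NBD-dihydro-galactosylceramide, measured by RapidFire/MS/MS (ESI negative). Reactions: 1 h, 37 °C, human CGT-expressing CHO lysate (4 μg), 0.001–50 μM compound, 10 μM NBD-dihydro-ceramide, 17.5 μM UDP-galactose, 0.5% DMSO, pH 7.2; 0.01% Tween 80 added for ** values.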
`NC1CC2CCC(C1)N2C(=O)[C@@H](NS(=O)(=O)c1ccc2cc(OC3CCCC3)ccc2c1)C(F)(F)c1ccc(-c2ccc(C(F)(F)F)cc2)cc1` (stereo partly drawn) [Compound 55-1, N-((2R)-3-(3-amino-8-azabicyclo[3.2.1]octan-8-yl)-1,1-difluoro-3-oxo-1-(4′-(trifluoromethyl)-[1,1′-biphenyl]-4-yl)propan-2-yl)-6-(cyclopentyloxy) naphthalene-2-sulfonamide trifluoroacetate] displayed an IC50 of under 1 µM.

For `NC1CC2CCC(C1)N2C(=O)[C@H](NS(=O)(=O)c1ccc2cc(OC3CCCC3)ccc2c1)C(F)(F)c1ccc(-c2ccc(C(F)(F)F)cc2)cc1` (stereo partly drawn) [Compound 55-2, N-((2S)-3-(3-amino-8-azabicyclo[3.2.1]octan-8-yl)-1,1-difluoro-3-oxo-1-(4′-(trifluoromethyl)-[1,1′-biphenyl]-4-yl)propan-2-yl)-6-(cyclopentyloxy)naphthalene-2-sulfonamide trifluoroacetate], the IC50 lay in the range of 1 to 10 µM.

`NC1CC2CCC(C1)N2C(=O)[C@@H](NS(=O)(=O)c1ccc2cc(OC3CCCC3)ccc2c1)C(F)(F)c1ccc(-c2ccc(F)cc2)cc1` (stereo partly drawn) [Compound 56-1, N-((2R)-3-(3-amino-8-azabicyclo[3.2.1]octan-8-yl)-1,1-difluoro-1-(4′-fluoro-[1,1′-biphenyl]-4-yl)-3-oxopropan-2-yl)-6-(cyclopentyloxy)naphthalene-2-sulfonamide trifluoroacetate]: the IC50 is under 1 µM.

`NC1CC2CCC(C1)N2C(=O)[C@H](NS(=O)(=O)c1ccc2cc(OC3CCCC3)ccc2c1)C(F)(F)c1ccc(-c2ccc(F)cc2)cc1` (stereo partly drawn) [Compound 56-2, N-((2S)-3-(3-amino-8-azabicyclo[3.2.1]octan-8-yl)-1,1-difluoro-1-(4′-fluoro-[1,1′-biphenyl]-4-yl)-3-oxopropan-2-yl)-6-(cyclopentyloxy)naphthalene-2-sulfonamide trifluoroacetate] gave an IC50 of 1 to 10 µM.

Molecule `NCC1CCN(C(=O)[C@@H](NS(=O)(=O)c2ccc3cc(OC4CCCC4)ccc3c2)C(F)(F)c2ccc(Br)cc2)CC1` [Compound 57-1, (R)—N-(3-(4-(aminomethyl)piperidin-1-yl)-1-(4-bromophenyl)-1,1-difluoro-3-oxopropan-2-yl)-6-(cyclopentyloxy)naphthalene-2-sulfonamide trifluoroacetate] displayed an IC50 of under 1 µM.

With `NCC1CCN(C(=O)[C@H](NS(=O)(=O)c2ccc3cc(OC4CCCC4)ccc3c2)C(F)(F)c2ccc(Br)cc2)CC1` [Compound 57-2, (S)—N-(3-(4-(aminomethyl)piperidin-1-yl)-1-(4-bromophenyl)-1,1-difluoro-3-oxopropan-2-yl)-6-(cyclopentyloxy)naphthalene-2-sulfonamide trifluoroacetate], the 50% inhibitory concentration (IC50) lay within 10 to 30 µM.

For the molecule `CCCCOc1ccc(C(F)(F)[C@@H](C(=O)N2CCC(N)CC2)N(C)S(=O)(=O)c2ccc(OCC3CCCCC3)cc2)cc1` [Compound 58-1, (R)—N-(3-(4-aminopiperidin-1-yl)-1-(4-butoxyphenyl)-1,1-difluoro-3-oxopropan-2-yl)-4-(cyclohexylmethoxy)-N-methylbenzenesulfonamide], the IC50 lay in the range of 1 to 10 µM.

For the molecule `CCCCOc1ccc(C(F)(F)[C@H](C(=O)N2CCC(N)CC2)N(C)S(=O)(=O)c2ccc(OCC3CCCCC3)cc2)cc1` [Compound 58-2, (S)—N-(3-(4-aminopiperidin-1-yl)-1-(4-butoxyphenyl)-1,1-difluoro-3-oxopropan-2-yl)-4-(cyclohexylmethoxy)-N-methylbenzenesulfonamide], the IC50 was in the range of 10 to 30 µM.

Molecule `NC1CC2CCC(C1)N2C(=O)[C@@H](NS(=O)(=O)c1ccc(OCC2CCCCC2)cc1)C(F)(F)c1ccc(C(F)(F)F)cc1` (stereo partly drawn) [Compound 59-1, N-((2R)-3-(3-amino-8-azabicyclo[3.2.1]octan-8-yl)-1,1-difluoro-3-oxo-1-(4-(trifluoromethyl)phenyl)propan-2-yl)-4-(cyclohexylmethoxy)benzenesulfonamide] displayed an IC50 of under 1 µM.

In turn, `NC1CC2CCC(C1)N2C(=O)[C@H](NS(=O)(=O)c1ccc(OCC2CCCCC2)cc1)C(F)(F)c1ccc(C(F)(F)F)cc1` (stereo partly drawn) [Compound 59-2, N-((2S)-3-(3-amino-8-azabicyclo[3.2.1]octan-8-yl)-1,1-difluoro-3-oxo-1-(4-(trifluoromethyl)phenyl)propan-2-yl)-4-(cyclohexylmethoxy) benzenesulfonamide] showed an IC50 of 1 to 10 µM.

In turn, `NC1CC2CCC(C1)N2C(=O)[C@@H](NS(=O)(=O)c1ccc(OCC2CCCC2)cc1)C(F)(F)c1ccc(C(F)(F)F)cc1` (stereo partly drawn) [Compound 60-1, N-((2R)-3-(3-amino-8-azabicyclo[3.2.1]octan-8-yl)-1,1-difluoro-3-oxo-1-(4-(trifluoromethyl)phenyl)propan-2-yl)-4-(cyclopentylmethoxy) benzenesulfonamide] displayed an IC50 of 1 to 10 µM.

`NC1CC2CCC(C1)N2C(=O)[C@H](NS(=O)(=O)c1ccc(OCC2CCCC2)cc1)C(F)(F)c1ccc(C(F)(F)F)cc1` (stereo partly drawn) [Compound 60-2, N-((2S)-3-(3-amino-8-azabicyclo[3.2.1]octan-8-yl)-1,1-difluoro-3-oxo-1-(4-(trifluoromethyl)phenyl)propan-2-yl)-4-(cyclopentylmethoxy)benzenesulfonamide]: the IC50 is 10 to 30 µM.

In turn, `NC1CCN(C(=O)[C@@H](NS(=O)(=O)c2ccc3cc(OC4CCCC4)ccc3c2)C(F)(F)c2ccc(Oc3ccccc3)cc2)CC1` [Compound 61-1, (R)—N-(3-(4-aminopiperidin-1-yl)-1,1-difluoro-3-oxo-1-(4-phenoxyphenyl)propan-2-yl)-6-(cyclopentyloxy)naphthalene-2-sulfonamide] came in with an IC50 of under 1 µM.

For the molecule `NC1CCN(C(=O)[C@H](NS(=O)(=O)c2ccc3cc(OC4CCCC4)ccc3c2)C(F)(F)c2ccc(Oc3ccccc3)cc2)CC1` [Compound 61-2, (S)—N-(3-(4-aminopiperidin-1-yl)-1,1-difluoro-3-oxo-1-(4-phenoxyphenyl)propan-2-yl)-6-(cyclopentyloxy)naphthalene-2-sulfonamide], the IC50 was under 1 µM.

With `CN([C@H](C(=O)N1CCC(N)CC1)C(F)(F)c1ccc(Oc2ccccc2)cc1)S(=O)(=O)c1ccc2cc(OC3CCCC3)ccc2c1` [Compound 62-1, (R)—N-(3-(4-aminopiperidin-1-yl)-1,1-difluoro-3-oxo-1-(4-phenoxyphenyl)propan-2-yl)-6-(cyclopentyloxy)-N-methylnaphthalene-2-sulfonamide trifluoroacetate], the IC50 was 1 to 10 µM.

`CN([C@@H](C(=O)N1CCC(N)CC1)C(F)(F)c1ccc(Oc2ccccc2)cc1)S(=O)(=O)c1ccc2cc(OC3CCCC3)ccc2c1` [Compound 62-2, (S)—N-(3-(4-aminopiperidin-1-yl)-1,1-difluoro-3-oxo-1-(4-phenoxyphenyl)propan-2-yl)-6-(cyclopentyloxy)-N-methylnaphthalene-2-sulfonamide trifluoroacetate] came in with a concentration for half-maximal inhibition (IC50) of 1 to 10 µM.

With `NC1CCN(C(=O)[C@@H](NS(=O)(=O)c2ccc(OCC3CCCCC3)cc2)C(F)(F)c2ccc(Oc3ccccc3)cc2)CC1` [Compound 63-1, (R)—N-(3-(4-aminopiperidin-1-yl)-1,1-difluoro-3-oxo-1-(4-phenoxyphenyl)propan-2-yl)-4-(cyclohexylmethoxy)benzenesulfonamide trifluoroacetate], the 50% inhibitory concentration (IC50) is 1 to 10 µM.

On to `NC1CCN(C(=O)[C@H](NS(=O)(=O)c2ccc(OCC3CCCCC3)cc2)C(F)(F)c2ccc(Oc3ccccc3)cc2)CC1` [Compound 63-2, (S)—N-(3-(4-aminopiperidin-1-yl)-1,1-difluoro-3-oxo-1-(4-phenoxyphenyl)propan-2-yl)-4-(cyclohexylmethoxy)benzenesulfonamide trifluoroacetate], for which the IC50 was 10 to 30 µM.

Molecule `CN([C@H](C(=O)N1CCC(N)CC1)C(F)(F)c1ccc(Oc2ccccc2)cc1)S(=O)(=O)c1ccc(OCC2CCCCC2)cc1` [Compound 64-1, (R)—N-(3-(4-aminopiperidin-1-yl)-1,1-difluoro-3-oxo-1-(4-phenoxyphenyl)propan-2-yl)-4-(cyclohexylmethoxy)-N-methylbenzenesulfonamide] came in with an IC50 of 1 to 10 µM.

The molecule `CN([C@@H](C(=O)N1CCC(N)CC1)C(F)(F)c1ccc(Oc2ccccc2)cc1)S(=O)(=O)c1ccc(OCC2CCCCC2)cc1` [Compound 64-2, (S)—N-(3-(4-aminopiperidin-1-yl)-1,1-difluoro-3-oxo-1-(4-phenoxyphenyl)propan-2-yl)-4-(cyclohexylmethoxy)-N-methylbenzenesulfonamide] yielded an IC50 of 10 to 30 µM.

Molecule `NC1CC2CCC(C1)N2C(=O)[C@@H](NS(=O)(=O)c1ccc2cc(OC3CCCC3)ccc2c1)C(F)(F)c1cccc(Br)c1` (stereo partly drawn) [Compound 65-1, N-((2R)-3-(3-amino-8-azabicyclo[3.2.1]octan-8-yl)-1-(3-bromophenyl)-1,1-difluoro-3-oxopropan-2-yl)-6-(cyclopentyloxy)naphthalene-2-sulfonamide] came in with an IC50 of 1 to 10 µM.

The values above are taken from patent US20190322676A1, “CERAMIDE GALACTOSYLTRANSFERASE INHIBITORS FOR THE TREATMENT OF DISEASE” (BioMarin Pharmaceutical Inc., priority 2016, published 2019).
